# Experimental data taken from paper PMC2806265, “Divergence of allosteric effects of rapacuronium on binding and function of muscarinic receptors” (BMC Pharmacology, 2009).
# Marks after values point to notes of the source that are not given here.
# Key:
# [1] = target: T1, M5 muscarinic receptor (Homo sapiens, UniProt P08912); experiment: [35S]GTPγS binding to membranes; type: biochemical; set-up: host or cells: CHO cells, stably transfected; membranes; conditions: for EMAX of ACh on [^35S]GTPγS binding: fold of basal
# T1 sequence (P08912 1-532): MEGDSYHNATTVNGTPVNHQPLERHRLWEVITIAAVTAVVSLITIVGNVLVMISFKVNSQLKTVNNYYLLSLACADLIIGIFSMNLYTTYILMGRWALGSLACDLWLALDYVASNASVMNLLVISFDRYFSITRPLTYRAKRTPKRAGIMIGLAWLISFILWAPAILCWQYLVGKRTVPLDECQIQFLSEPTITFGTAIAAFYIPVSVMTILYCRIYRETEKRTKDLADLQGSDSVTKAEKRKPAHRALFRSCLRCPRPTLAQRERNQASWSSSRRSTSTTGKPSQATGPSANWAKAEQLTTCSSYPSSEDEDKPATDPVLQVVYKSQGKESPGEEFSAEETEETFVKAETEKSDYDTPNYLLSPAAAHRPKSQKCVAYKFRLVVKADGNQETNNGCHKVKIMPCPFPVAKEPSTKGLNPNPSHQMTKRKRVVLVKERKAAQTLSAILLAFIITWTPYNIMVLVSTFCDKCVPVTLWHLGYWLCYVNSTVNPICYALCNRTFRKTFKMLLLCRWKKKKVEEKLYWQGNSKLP
# Experimental: (§5) For determination of [^35S]GTPγS binding to G-proteins in membranes a final concentration of 200 pM (M1, M3 and M5 receptors) or 500 pM (M2 and M4 receptors) of [^35S]GTPγS was used. Incubation medium was supplemented with 5 μM (M1, M3 and M5 receptors) or 50 μM (M2 and M4 receptors) GDP. […] Incubation with [^35S]GTPγS was carried out for 20 min and free ligand was removed by filtration as described above. Filtration and washing with ice-cold water lasted for 9 s (wash-aspirate button time).
# [2] = target: T2, M4 muscarinic receptor (Homo sapiens, UniProt P08173); experiment: [3H]NMS saturation binding
# T2 sequence (P08173 1-479): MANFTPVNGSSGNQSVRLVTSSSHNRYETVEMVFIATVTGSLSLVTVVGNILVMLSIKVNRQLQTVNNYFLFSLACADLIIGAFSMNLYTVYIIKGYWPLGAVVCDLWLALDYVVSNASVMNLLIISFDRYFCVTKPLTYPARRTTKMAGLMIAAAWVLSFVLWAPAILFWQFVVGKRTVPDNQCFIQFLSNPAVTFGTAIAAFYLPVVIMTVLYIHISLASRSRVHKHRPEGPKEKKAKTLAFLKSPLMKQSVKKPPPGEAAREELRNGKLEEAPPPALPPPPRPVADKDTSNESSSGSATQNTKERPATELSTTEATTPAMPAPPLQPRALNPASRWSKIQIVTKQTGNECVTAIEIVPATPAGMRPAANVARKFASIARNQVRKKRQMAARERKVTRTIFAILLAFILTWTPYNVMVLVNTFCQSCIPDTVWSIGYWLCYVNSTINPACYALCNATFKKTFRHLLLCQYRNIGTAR
# From the text: (§6) BMAX, maximum binding capacity; KD, equilibrium dissociation constant.
# [3] = target: T3, M1 muscarinic receptor (Homo sapiens, UniProt P11229); experiment: [35S]GTPγS binding to membranes; type: biochemical; conditions: for EMAX of ACh on [^35S]GTPγS binding: fold of basal
# T3 construct: host or cells: CHO cells, stably transfected; membrane preparation
# T3 sequence (P11229 1-460): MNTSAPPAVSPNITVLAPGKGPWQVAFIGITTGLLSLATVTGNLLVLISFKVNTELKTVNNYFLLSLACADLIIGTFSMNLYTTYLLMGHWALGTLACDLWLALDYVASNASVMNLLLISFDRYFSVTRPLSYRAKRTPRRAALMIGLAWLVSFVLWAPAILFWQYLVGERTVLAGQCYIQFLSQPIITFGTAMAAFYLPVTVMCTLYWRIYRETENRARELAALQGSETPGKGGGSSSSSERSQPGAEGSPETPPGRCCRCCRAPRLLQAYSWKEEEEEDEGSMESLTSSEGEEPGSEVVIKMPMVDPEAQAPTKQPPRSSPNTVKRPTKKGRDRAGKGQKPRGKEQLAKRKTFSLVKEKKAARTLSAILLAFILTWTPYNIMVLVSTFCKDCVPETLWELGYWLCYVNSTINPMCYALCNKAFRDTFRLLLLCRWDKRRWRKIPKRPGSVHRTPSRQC
# Experimental: as §5
# [4] = target: T1, M5 muscarinic receptor; experiment: [3H]NMS saturation binding
# From the text: as §6
# [5] = target: T1, M5 muscarinic receptor; experiment: Effect of rapacuronium on high-affinity 20 nM [3H]ACh binding; set-up: host or cells: CHO cells, stably transfected; membranes
# From the text: (§1) Cooperativity factor greater than 1 denotes negative cooperativity and less than 1 positive cooperativity. Due to its log-normal error distribution factors of cooperativity are expressed as negative logarithms (pα) through the manuscript so negative values denotes negative cooperativity and positive value denotes positive cooperativity.
# [6] = target: T2, M4 muscarinic receptor; experiment: as above; set-up: host or cells: CHO cells, stably transfected; membranes
# From the text: as §1
# [7] = target: T1, M5 muscarinic receptor; experiment: Effect of rapacuronium on low-affinity ACh binding ([3H]NMS + GTPγS + ACh); set-up: host or cells: CHO cells, stably transfected; membranes
# From the text: (§2) […]. Data are expressed as percent of specific binding in the absence of rapacuronium. […]. […] Data are means ± SE from 3 independent experiments performed in quadruplicates. Curves are fits of Eq. 3 (circles) and Eq. 4 (squares and triangles) to data prior to normalization.
# (§3) […]. […] […].
# [8] = target: T2, M4 muscarinic receptor; experiment: as above; set-up: host or cells: CHO cells, stably transfected; membranes
# From the text: as §2, §3
# [9] = target: T3, M1 muscarinic receptor; type: binding; conditions: + 100 μM rapacuronium
# From the text: (§4) y, radioligand binding at time x normalized to binding at time 0; koff1 and koff2, dissociation rate constants; f2, fraction of binding site with dissociation rate constant koff2. When both Eq. 7a and 7b were fitted to data the better fit was chosen based on sum of squares F-test and runs test.
# [10] = target: T4, M3 muscarinic receptor (Homo sapiens, UniProt P20309); type: binding
# T4 construct: host or cells: CHO cells, stably transfected; membranes
# From the text: as §4
# [11] = M5, negative value = negative cooperativity
# [12] = read-out: pKA of rapacuronium (converted)
# [13] = M4, negative value = negative cooperativity
# T4 sequence (P20309 whole entry): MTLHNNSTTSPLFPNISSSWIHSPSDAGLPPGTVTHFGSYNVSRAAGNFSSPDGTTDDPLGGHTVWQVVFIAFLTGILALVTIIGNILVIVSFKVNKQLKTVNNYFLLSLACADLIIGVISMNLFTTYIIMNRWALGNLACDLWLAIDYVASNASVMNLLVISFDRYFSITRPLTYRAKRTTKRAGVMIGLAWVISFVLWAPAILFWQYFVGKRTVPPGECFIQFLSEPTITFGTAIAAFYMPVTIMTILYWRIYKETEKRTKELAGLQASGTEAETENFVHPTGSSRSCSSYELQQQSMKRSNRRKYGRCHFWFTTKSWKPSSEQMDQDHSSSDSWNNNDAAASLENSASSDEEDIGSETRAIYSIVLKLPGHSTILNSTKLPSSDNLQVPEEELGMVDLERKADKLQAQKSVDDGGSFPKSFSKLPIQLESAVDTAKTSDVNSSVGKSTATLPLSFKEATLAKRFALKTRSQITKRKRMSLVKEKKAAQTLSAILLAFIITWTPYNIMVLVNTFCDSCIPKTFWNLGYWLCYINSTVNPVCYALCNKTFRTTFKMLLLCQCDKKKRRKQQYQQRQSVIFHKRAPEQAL
smiles,measurement,setting,value
C=CC[N+]1([C@H]2C[C@H]3[C@@H]4CC[C@H]5C[C@H](OC(C)=O)[C@@H](N6CCCCC6)C[C@]5(C)[C@H]4CC[C@]3(C)[C@H]2OC(=O)CC)CCCCC1 [rapacuronium],EC50,[1],61.7 µM
same,decrease in ACh EC50,"[1]; M5, 0.1 μM rapacuronium",1.5 fold
same,decrease in ACh EC50,"[1]; M5, 1 μM rapacuronium",4 fold
same,EMAX of ACh on [^35S]GTPγS binding,"[1]; M5, + 0.1 μM rapacuronium",2.10 ± 0.09
same,EMAX of ACh on [^35S]GTPγS binding,"[1]; M5, + 1 μM rapacuronium",2.04 ± 0.09
same,EMAX of ACh on [^35S]GTPγS binding,"[1]; M5, + 10 μM rapacuronium",2.22 ± 0.09
same,EMAX of rapacuronium on [^35S]GTPγS binding,"[1]; M5, rapacuronium alone, normalized to absence of rapacuronium",0.75 ± 0.07
same,BMAX of [^3H]NMS,[2]; + 10 μM rapacuronium,1.17 ± 0.13 fmol/μg of protein
same,BMAX of [^3H]NMS,[2]; + 100 μM rapacuronium,1.06 ± 0.10 fmol/μg of protein
same,decrease in ACh EC50,[3]; 0.1 μM rapacuronium,1.5 fold
same,decrease in ACh EC50,[3]; 1 μM rapacuronium,4 fold
same,EMAX of ACh on [^35S]GTPγS binding,[3]; + 0.1 μM rapacuronium,2.35 ± 0.12
same,EMAX of ACh on [^35S]GTPγS binding,[3]; + 1 μM rapacuronium,2.28 ± 0.12
same,EMAX of ACh on [^35S]GTPγS binding,[3]; + 10 μM rapacuronium,2.27 ± 0.11
same,EMAX of rapacuronium on [^35S]GTPγS binding,"[3]; rapacuronium alone, normalized to absence of rapacuronium",0.76 ± 0.08
same,EC50,"[3]; rapacuronium alone, read-out: pEC50 of rapacuronium on [^35S]GTPγS binding (converted)",50.1 µM
same,BMAX of [^3H]NMS,[4]; + 10 μM rapacuronium,1.53 ± 0.15 fmol/μg of protein
same,BMAX of [^3H]NMS,[4]; + 100 μM rapacuronium,1.33 ± 0.13 fmol/μg of protein
same,"pα, cooperativity with [^3H]ACh high affinity binding",[5]; [11],-1.34 ± 0.07
same,Kd,[5]; [12],12 µM
same,"pα, cooperativity with [^3H]ACh high affinity binding",[6]; [13],-1.51 ± 0.05
same,Kd,[6]; [12],3.89 µM
same,Kd,[7],11.2 µM
same,"pβ, cooperativity with ACh low affinity binding",[7]; [11],-1.28 ± 0.07
same,Kd,[8],3.24 µM
same,decrease in ACh low-affinity binding (cooperativity),[8]; M4,36 times
same,"pβ, cooperativity with ACh low affinity binding",[8]; [13],-1.56 ± 0.07
same,"f2, fraction of sites with faster dissociation",[9],14 ± 3%
same,koff1 of [^3H]NMS dissociation,[9],0.014 ± 0.001* min^-1
same,koff2 of [^3H]NMS dissociation,[9],0.00567 ± 0.00083 s⁻¹
same,decrease in rate of [^3H]NMS dissociation,[10]; 100 μM rapacuronium,40%
same,"f2, fraction of sites with faster dissociation",[10]; + 100 μM rapacuronium,20 ± 4%
same,koff1 of [^3H]NMS dissociation,[10]; + 100 μM rapacuronium,0.031 ± 0.002* min^-1
same,koff2 of [^3H]NMS dissociation,[10]; + 100 μM rapacuronium,0.000967 ± 0.00015 s⁻¹
